Data reported in patent publication US9233978B2, “6-fused heteroaryldihydropyrimidines for the treatment and prophylaxis of hepatitis B virus infection” (Hoffmann-La Roche Inc., priority 2014, dated 2016).
In brackets after ≈: the same amount, converted by molar mass.

Experiments:
HBV = experiment: Anti-HBV activity in vitro, HepG2.2.15 cells, extracellular HBV DNA by qPCR; assay type: cell-based; settings: Hepatitis B virus, HepG2.2.15, 120 h, HepG2.2.15 cells; HBV replication inhibited by 50%, extracellular HBV DNA by qPCR; five days after compound treatment; read-out: EC50
Excerpt: HepG2.2.15 and HepDE19 are stably-transfected cell lines containing the HBV genome. Both cell lines are derived from the hepatoblastoma cell line Hep G2 (American Type Culture Collection, ATCC® HB-8065™) by the published procedures described in references: MA Selles et al. Proc. Natl. Acad. Sci. USA 1987, 84, 1005-1009 and H Guo et al. Journal of Virology 2007, 81, 12472-12484, respectively. Both cell lines were maintained in Dulbecco's modified Eagle's medium (DMEM)-F12 medium supplemented with 10% fetal bovine serum, 100 U/mL penicillin, 100 μg/mL streptomycin, and 0.5 mg/mL of G418.
While HepG2.2.15 cells constitutively support HBV replication and production of virus particles, HepDE19 cells are inducible by tetracycline. Addition of 1 μg/mL tetracycline in culture medium suppresses HBV replication in HepDE19 cells, whereas switching to tetracycline-free medium resumes this process.
HepG2.2.15 cells were seeded into 96-well plates (3×10^4 cells in 100 μL media per well) and incubated overnight at 37° C. The test compounds were serially half-log diluted in DMSO, then diluted 100 times in culture media. 100 μL of diluted compounds were added into the plates to reach 0.5% final concentration of DMSO in every well. Five days after compound treatment, culture supernatant was collected for further analysis.
For quantitative PCR detection of extracellular HBV DNA, 100 μL of culture supernatant was collected and processed in MagNA Pure 96 Nucleic Acid Purification System (Roche Applied Science) for viral DNA extraction. The extracted samples were subjected to HBV DNA quantification by qPCR.

Lysa solubility = assay type: physicochemical; settings: 0.05 M phosphate buffer (pH 6.5); for solubility thermodynamic: phosphate buffer, pH 6.5, aqueous buffer, thermodynamic from solid
Experimental: Samples were prepared in duplicate from 10 mM DMSO stock solutions. After evaporation of DMSO with a centrifugal vacuum evaporator, the residue was solved in 0.05 M phosphate buffer (pH 6.5), stirred for one hour and shook for two hours. After one night, the solution was filtered using a microtiter filter plate. Then the filtrate and its 1/10 dilution were analyzed by direct UV measurement or by HPLC-UV. […] The results were in μg/mL. In case the percentage of sample measured in solution after evaporation divided by the calculated maximum of sample amount was over 80%, the solubility was reported as higher than this value.

[1] = Human microsomal metabolic stability; assay type: in vitro ADME; settings: human microsomes 0.5 mg/mL, 1 μM test compound, NADPH, 37° C., pH 7.4, 0-30 minutes
Experimental: Human Microsomes (BD Gentest) were preincubated with test compound for 10 minutes at 37° C. in 100 mM phosphate buffer, pH 7.4. The reactions were initiated by adding NADPH or NADPH regenerating system to give a final incubation volume of 400 μL. For NADPH system, the final incubations contained 1 μM test compound, 0.5 mg/mL liver microsomal protein, 1 mM NADPH in 100 mM phosphate buffer, pH 7.4. For the NADPH regenerating system, the final incubations contained 1 μM test compound, 0.5 mg/mL liver microsomal protein, 3 mM glucose 6-phosphate, 1 mM NADP, 3 mM MgCl2 and 0.05 mg/mL glucose 6-phosphate dehydrogenase in 100 mM phosphate buffer, pH 7.4. After incubation times of 0, 3, 6, 9, 15 and 30 minutes at 37° C., 1 sample was obtained from each time point and 50 μL of each sample was removed and transferred to 150 μL of methanol solution which was maintained at 4° C. and contained 2 μM tolbutamide as internal standard. Following precipitation and centrifugation, the amount of compound remaining in the samples were determined by LC-MS/MS. Controls of no NADPH or no NADPH regenerating system at zero and 30 minutes were also prepared and analyzed.

| Compound | EC50 (HBV) [nM] | solubility thermodynamic (Lysa solubility) [µg/mL] | Human Microsomal Clearance [1] [mL/min/kg] | Lysa (Lysa solubility) [µg/mL] |
| --- | --- | --- | --- | --- |
| COC(=O)C1=C(CN2CCN3C(=O)N(c4ccc(C(=O)O)nc4)CC3C2)NC(c2nccs2)=N[C@H]1c1ccc(F)cc1Cl (mixture of isomers) [Example 95, 5-[7-[[(4R)-4-(2-chloro-4-fluoro-phenyl)-5-methoxycarbonyl-2-thiazol-2-yl-1,4-dihydropyrimidin-6-yl]methyl]-3-oxo-5,6,8,8a-tetrahydro-1H-imidazo[1,5-a]pyrazin-2-yl]pyridine-2-carboxylic acid] | 11 | 307 (≈ 490 µM) | – | – |
| CCOC(=O)C1=C(CN2CCN3C(=O)N(C4CC4)C[C@H]3[C@@H]2C(=O)O)NC(c2nccs2)=N[C@H]1c1cccc(F)c1Cl (single isomer, unassigned) [Example 82A] | 145 | – | 1.7 | – |
| COC(=O)C1=C(CN2CCN3C(=O)N(C4CC4)C[C@H]3[C@@H]2C(=O)O)NC(c2nccs2)=N[C@H]1c1ccc(F)c(F)c1C (single isomer, unassigned) [Example 83A] | – | – | – | > 740 |
| CCOC(=O)C1=C(CN2CCN3C(=O)N(C(C)C)C[C@H]3[C@@H]2C(=O)O)NC(c2nccs2)=N[C@H]1c1cccc(F)c1Cl (single isomer, unassigned) [Example 84A] | 45 | – | – | 570 |
| COC(=O)C1=C(CN2CCN3C(=O)N(C4(CC(=O)O)CC4)CC3C2)NC(c2nccs2)=N[C@H]1c1ccc(F)cc1Cl (stereo in doubt) [Example 47, 2-[1-[(8aR)-7-[[(4R)-4-(2-chloro-4-fluoro-phenyl)-5-methoxycarbonyl-2-thiazol-2-yl-1,4-dihydropyrimidin-6-yl]methyl]-3-oxo-5,6,8,8a-tetrahydro-1H-imidazo[1,5-a]pyrazin-2-yl]cyclopropyl]acetic acid] | 51 | > 767 | – | – |
| CCOC(=O)C1=C(CN2CCN3C(=O)N([C@@H]4CCCC4C(=O)O)C[C@@H]3C2)NC(c2nccs2)=N[C@H]1c1cccc(F)c1Cl (stereo in doubt) [Example 49, (1S,2R)-2-[(8aS)-7-[[(4R)-4-(2-chloro-3-fluoro-phenyl)-5-ethoxycarbonyl-2-thiazol-2-yl-1,4-dihydropyrimidin-6-yl]methyl]-3-oxo-5,6,8,8a-tetrahydro-1H-imidazo[1,5-a]pyrazin-2-yl]cyclopentanecarboxylic acid] | 8 | 312 (≈ 494 µM) | – | – |
| COC(=O)C1=C(CN2CCN3[C@H](CNS3(=O)=O)C2)NC(c2nccs2)=N[C@H]1c1ccc(F)cc1Cl [Example 17, Methyl (4R)-6-[[(3aS)-1,1-dioxo-2,3,3a,4,6,7-hexahydro-[1,2,5]thiadiazolo[2,3-a]pyrazin-5-yl]methyl]-4-(2-chloro-4-fluoro-phenyl)-2-thiazol-2-yl-1,4-dihydropyrimidine-5-carboxylate] | 39 | – | – | – |
| COC(=O)C1=C(CN2CCN3[C@@H](CNS3(=O)=O)C2)NC(c2nccs2)=N[C@H]1c1ccc(F)cc1Cl [Example 18, Methyl (4R)-6-[[(3aR)-1,1-dioxo-2,3,3a,4,6,7-hexahydro-[1,2,5]thiadiazolo[2,3-a]pyrazin-5-yl]methyl]-4-(2-chloro-4-fluoro-phenyl)-2-thiazol-2-yl-1,4-dihydropyrimidine-5-carboxylate] | 108 | – | – | – |
| CCOC(=O)C1=C(CN2CCN3C(=O)N(C(C)(C)C(=O)OC)CC3C2)NC(c2nccs2)=N[C@H]1c1cccc(F)c1Cl (stereo partly drawn) [Example 23, Ethyl (4R)-4-(2-chloro-3-fluoro-phenyl)-6-[[2-(2-methoxy-1,1-dimethyl-2-oxo-ethyl)-3-oxo-5,6,8,8a-tetrahydro-1H-imidazo[1,5-a]pyrazin-7-yl]methyl]-2-thiazol-2-yl-1,4-dihydropyrimidine-5-carboxylate] | 3 | – | – | – |
| COC(=O)C1=C(CN2CCN3C(=O)N(C4(CC(=O)O)CC4)C[C@H]3C2)NC(c2nccs2)=N[C@H]1c1ccc(F)cc1Cl [Example 46, 2-[1-[(8aR)-7-[[(4R)-4-(2-chloro-4-fluoro-phenyl)-5-methoxycarbonyl-2-thiazol-2-yl-1,4-dihydropyrimidin-6-yl]methyl]-3-oxo-5,6,8,8a-tetrahydro-1H-imidazo[1,5-a]pyrazin-2-yl]cyclopropyl]acetic acid] | 26 | > 744 | – | – |
| COC(=O)C1=C(CN2CCN3C(=O)N([C@H]4CCC[C@@H]4C(=O)O)C[C@@H]3C2)NC(c2nccs2)=N[C@H]1c1ccc(F)cc1Cl [Example 52, (1S,2S)-2-[(8aS)-7-[[(4R)-4-(2-chloro-4-fluoro-phenyl)-5-methoxycarbonyl-2-thiazol-2-yl-1,4-dihydropyrimidin-6-yl]methyl]-3-oxo-5,6,8,8a-tetrahydro-1H-imidazo[1,5-a]pyrazin-2-yl]cyclopentanecarboxylic acid] | 30 | – | – | – |
| CCOC(=O)C1=C(CN2CCN3C(=O)N(CCC(=O)O)C[C@@H]3C2)NC(c2nccs2)=N[C@H]1c1cccc(F)c1Cl [Example 56, (R)-6-[(S)-2-(2-Carboxy-ethyl)-3-oxo-hexahydro-imidazo[1,5-a]pyrazin-7-ylmethyl]-4-(2-chloro-3-fluoro-phenyl)-2-thiazol-2-yl-1,4-dihydro-pyrimidine-5-carboxylic acid ethyl ester] | 26 | > 740 | – | – |
| CCOC(=O)C1=C(CN2CCN3C(=O)N([C@H](C)CC(=O)O)C[C@@H]3C2)NC(c2nccs2)=N[C@H]1c1cccc(F)c1Cl [Example 57, (R)-6-[(S)-2-((R)-2-Carboxy-1-methyl-ethyl)-3-oxo-hexahydro-imidazo[1,5-a]pyrazin-7-ylmethyl]-4-(2-chloro-3-fluoro-phenyl)-2-thiazol-2-yl-1,4-dihydro-pyrimidine-5-carboxylic acid ethyl ester] | 32 | – | – | – |
| CCOC(=O)C1=C(CN2CCN3C(=O)N([C@@H](C)CC(=O)O)C[C@@H]3C2)NC(c2nccs2)=N[C@H]1c1cccc(F)c1Cl [Example 58, (R)-6-[(S)-2-((S)-2-Carboxy-1-methyl-ethyl)-3-oxo-hexahydro-imidazo[1,5-a]pyrazin-7-ylmethyl]-4-(2-chloro-3-fluoro-phenyl)-2-thiazol-2-yl-1,4-dihydro-pyrimidine-5-carboxylic acid ethyl ester] | 19 | – | – | – |
| COC(=O)C1=C(CN2CCN3C(=O)N(CCCC(C)(C)CO)CC3C2)NC(c2nccs2)=N[C@H]1c1ccc(F)cc1Cl (stereo partly drawn) [Example 69, Methyl (4R)-4-(2-chloro-4-fluoro-phenyl)-6-[[2-(5-hydroxy-4,4-dimethyl-pentyl)-3-oxo-5,6,8,8a-tetrahydro-1H-imidazo[1,5-a]pyrazin-7-yl]methyl]-2-thiazol-2-yl-1,4-dihydropyrimidine-5-carboxylate] | 13 | – | – | – |
| CCC(CN1C[C@@H]2CN(CC3=C(C(=O)OC)[C@H](c4ccc(F)cc4Cl)N=C(c4nccs4)N3)CCN2C1=O)C(=O)O (stereo partly drawn) [Example 75, 2-[[(8aS)-7-[[(4R)-4-(2-chloro-4-fluoro-phenyl)-5-methoxycarbonyl-2-thiazol-2-yl-1,4-dihydropyrimidin-6-yl]methyl]-3-oxo-5,6,8,8a-tetrahydro-1H-imidazo[1,5-a]pyrazin-2-yl]methyl]butanoic acid] | 24 | > 774 | – | – |
| CCOC(=O)C1=C(CN2CCN3C(=O)N(CC(F)(F)C(=O)O)C[C@@H]3C2)NC(c2nccs2)=N[C@H]1c1ccc(F)c(F)c1C [Example 96, (S)-6-[(S)-2-(2-Carboxy-2,2-difluoro-ethyl)-3-oxo-hexahydro-imidazo[1,5-a]pyrazin-7-ylmethyl]-4-(3,4-difluoro-2-methyl-phenyl)-2-thiazol-2-yl-1,4-dihydro-pyrimidine-5-carboxylic acid ethyl ester] | 150 | – | – | – |
